Among the data in patent publication US4064010A, “Purification of uricase” (Eastman Kodak Company, priority 1976, dated 1977) are Ki and Km values, retold here.

pKi: −log10 of the molar value.

The assay has as its target Micrococcus luteus NRRL B-8166 uricase. In words: Assay of uricase (spectrophotometric, disappearance of uric acid at 290 nm). The format is biochemical. The procedure: Uricase was assayed spectrophotometrically by following the disappearance of uric acid at 290 nm using a modification of the procedure described by Mahler et. al, J. Biol. Chem., 216, p. 625, (1955). Assay tubes contained 2.7 ml 50 mM KPi buffer pH 8.6, 0.1 mM sodium EDTA, 0.05 ml 6 mM urate, plus enzyme and water to give a final volume of 3.0 ml. Changes or additions to the assay mixtures were made when necessary. Tubes were incubated for 5 minutes at 30° C; the reaction was started by adding enzyme. Molar extinction coefficient for uric acid at 290 nm is 12,300. Activity was expressed in units of uricase activity, where a unit is that amount of enzyme which catalyzes the oxidation of one μmole of uric acid per minute at 30° C and pH 8.6.

Consider `O=C(O)c1nc(=O)[nH]c(=O)[nH]1` [oxonate], for which the pKi (read-out: inhibition constant for oxonate) is 5.35.

For `O=c1[nH]c(=O)c2[nH]c(=O)[nH]c2[nH]1` [uric acid], the Km (substrate not given, the uricase assay uses urate, KPi buffer pH 8.6, 30° C, read-out: Michaelis constant) is 37 µM.
